Data published in US20250122183A1 (Pfizer Inc., priority 2023, published 2025).
Where two headings read alike, the source gives them in different places. Each block holds one molecule with its values, some of them ahead of it.

Key:
KAT6A Full length enzyme = KAT6A Full length enzyme (Homo sapiens (Human), UniProt Q92794); assay: KAT6A assay (SAMDI-MS acetylation of H3 1-21 peptide); format: biochemical; details: replicate number in parentheses
[1] = molecular target: KAT7+JADE1+EAF6+ING5 4 protein complex (Homo sapiens (Human), UniProt O95251); assay: KAT7 JADE1 assay (SAMDI-MS acetylation of H3 1-21 peptide); format: biochemical; details: replicate number in parentheses
[2] = Morrison equation fit, read-out: KAT6A Ki (nM) (replicate number)
[3] = Morrison equation fit, read-out: KAT7 JADE1 Ki (nM) (replicate number)
[4] = read-out: KAT6A Ki (nM) (replicate)
[5] = read-out: KAT7 JADE1 Ki (nM) (replicate)

Sequence of KAT6A Full length enzyme (Q92794 other isoform, or with tags, fused parts or gaps): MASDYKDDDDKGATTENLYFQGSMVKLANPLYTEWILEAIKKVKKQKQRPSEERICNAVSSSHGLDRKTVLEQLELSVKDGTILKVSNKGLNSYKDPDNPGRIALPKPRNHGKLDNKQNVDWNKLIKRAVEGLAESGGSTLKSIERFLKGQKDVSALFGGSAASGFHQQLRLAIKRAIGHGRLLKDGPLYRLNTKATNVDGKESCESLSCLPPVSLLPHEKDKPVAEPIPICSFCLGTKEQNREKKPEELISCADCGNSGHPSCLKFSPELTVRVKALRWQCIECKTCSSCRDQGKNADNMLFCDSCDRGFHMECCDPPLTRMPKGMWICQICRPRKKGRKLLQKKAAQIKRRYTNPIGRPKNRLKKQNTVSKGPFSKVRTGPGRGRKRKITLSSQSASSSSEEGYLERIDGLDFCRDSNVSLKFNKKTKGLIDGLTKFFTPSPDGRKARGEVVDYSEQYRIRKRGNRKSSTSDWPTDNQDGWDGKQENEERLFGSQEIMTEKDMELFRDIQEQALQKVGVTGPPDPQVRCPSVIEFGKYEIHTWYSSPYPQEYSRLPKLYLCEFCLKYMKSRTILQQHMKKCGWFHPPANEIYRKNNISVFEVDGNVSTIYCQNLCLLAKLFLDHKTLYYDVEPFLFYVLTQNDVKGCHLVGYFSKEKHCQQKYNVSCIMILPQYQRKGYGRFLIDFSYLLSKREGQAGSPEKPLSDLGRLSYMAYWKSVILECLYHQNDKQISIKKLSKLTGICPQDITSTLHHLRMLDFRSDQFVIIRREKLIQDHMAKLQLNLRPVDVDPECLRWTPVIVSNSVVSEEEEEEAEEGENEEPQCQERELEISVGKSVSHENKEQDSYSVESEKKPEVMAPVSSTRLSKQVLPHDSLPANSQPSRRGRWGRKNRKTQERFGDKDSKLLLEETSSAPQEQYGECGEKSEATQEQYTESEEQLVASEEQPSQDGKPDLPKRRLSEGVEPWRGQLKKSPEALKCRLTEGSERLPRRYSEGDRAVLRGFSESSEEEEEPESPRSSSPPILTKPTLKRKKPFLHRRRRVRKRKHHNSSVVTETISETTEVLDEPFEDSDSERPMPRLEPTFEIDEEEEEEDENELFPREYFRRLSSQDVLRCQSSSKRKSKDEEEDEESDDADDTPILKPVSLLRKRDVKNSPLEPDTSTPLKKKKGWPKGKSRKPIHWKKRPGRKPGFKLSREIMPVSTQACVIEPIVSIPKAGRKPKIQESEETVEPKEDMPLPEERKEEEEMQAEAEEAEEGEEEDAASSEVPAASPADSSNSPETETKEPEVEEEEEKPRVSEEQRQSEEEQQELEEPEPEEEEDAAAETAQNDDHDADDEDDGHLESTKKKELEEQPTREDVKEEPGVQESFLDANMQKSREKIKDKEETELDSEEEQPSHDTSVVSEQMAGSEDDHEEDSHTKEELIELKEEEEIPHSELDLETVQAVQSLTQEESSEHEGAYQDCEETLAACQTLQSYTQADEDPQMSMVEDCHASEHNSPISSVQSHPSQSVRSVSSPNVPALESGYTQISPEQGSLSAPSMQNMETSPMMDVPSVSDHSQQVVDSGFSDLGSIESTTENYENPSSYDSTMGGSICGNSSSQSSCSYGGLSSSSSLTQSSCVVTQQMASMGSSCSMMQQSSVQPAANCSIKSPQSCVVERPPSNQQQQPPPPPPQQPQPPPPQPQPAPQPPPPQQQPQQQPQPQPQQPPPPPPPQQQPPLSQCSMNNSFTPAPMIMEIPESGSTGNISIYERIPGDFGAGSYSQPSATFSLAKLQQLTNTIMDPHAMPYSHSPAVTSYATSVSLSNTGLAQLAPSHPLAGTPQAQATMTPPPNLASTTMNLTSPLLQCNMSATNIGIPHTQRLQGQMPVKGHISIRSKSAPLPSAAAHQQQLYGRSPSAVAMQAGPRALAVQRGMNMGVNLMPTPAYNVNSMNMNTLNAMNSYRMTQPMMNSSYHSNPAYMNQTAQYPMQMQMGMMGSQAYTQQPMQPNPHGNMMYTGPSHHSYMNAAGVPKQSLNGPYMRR

SMILES: CCN1CCCCC1c1cc(OC)c(S(=O)(=O)Nc2noc3cc(Nc4cc(C5CC5)n[nH]4)c(OC)cc23)c(OC)c1 (single isomer, unassigned) [Example 173, N-{6-[(3-cyclopropyl-1 H-pyrazol-5-yl)amino]-5-methoxy-1,2-benzoxazol-3-yl}-4-(1-ethylpiperidin-2-yl)-2,6-dimethoxybenzene-1-sulfonamide]
Ki (KAT6A Full length enzyme; [2]): 7.5 nM
Ki [1, 3]: 114 nM

SMILES: CCN1CCCCC1c1cc(OC)c(S(=O)(=O)Nc2noc3cc(Nc4cc(C5CC5)n[nH]4)c(OC)cc23)c(OC)c1 (single isomer, unassigned) [Example 174, N-{6-[(3-cyclopropyl-1 H-pyrazol-5-yl)amino]-5-methoxy-1,2-benzoxazol-3-yl}-4-(1-ethylpiperidin-2-yl)-2,6-dimethoxybenzene-1-sulfonamide]
Ki (KAT6A Full length enzyme; [2]): 4.4 nM
Ki [1, 3]: 27.3 nM

SMILES: COc1cc2c(NS(=O)(=O)c3c(OC)cc(C4CN(C)CCC4(F)F)cc3OC)noc2cc1Nc1cc(C2CC2)n[nH]1 (single isomer, unassigned) [Example 175, N-{6-[(3-cyclopropyl-1 H-pyrazol-5-yl)amino]-5-methoxy-1,2-benzoxazol-3-yl}-4-(4,4-difluoro-1-methylpiperidin-3-yl)-2,6-dimethoxybenzene-1-sulfonamide]
Ki (KAT6A Full length enzyme; [2]): 0.4 nM
Ki [1, 3]: 1 nM

Ki (KAT6A Full length enzyme; [2]): 1 nM
Ki [1, 3]: 8.6 nM
SMILES: COc1cc2c(NS(=O)(=O)c3c(OC)cc(C4COCCN4C)cc3OC)noc2cc1Nc1cc(C2CC2)[nH]n1 (single isomer, unassigned) [Example 179, N-{6-[(5-cyclopropyl-1 H-pyrazol-3-yl)amino]-5-methoxy-1,2-benzoxazol-3-yl}-2,6-dimethoxy-4-(4-methylmorpholin-3-yl)benzene-1-sulfonamide]

SMILES: CCN1CCCC1c1cc(OC)c(S(=O)(=O)Nc2noc3cc(Nc4cc(C5CC5)[nH]n4)c(OC)cc23)c(OC)c1 (single isomer, unassigned) [Example 190, N-{6-[(5-cyclopropyl-1 H-pyrazol-3-yl)amino]-5-methoxy-1,2-benzoxazol-3-yl}-4-(1-ethylpyrrolidin-2-yl)-2,6-dimethoxybenzene-1-sulfonamide]
Ki (KAT6A Full length enzyme; [2]): 5.6 nM
Ki [1, 3]: 54.5 nM

SMILES: CCN1CCCC1c1cc(OC)c(S(=O)(=O)Nc2noc3cc(Nc4cc(C5CC5)[nH]n4)c(OC)cc23)c(OC)c1 (single isomer, unassigned) [Example 191, N-{6-[(5-cyclopropyl-1 H-pyrazol-3-yl)amino]-5-methoxy-1,2-benzoxazol-3-yl}-4-(1-ethylpyrrolidin-2-yl)-2,6-dimethoxybenzene-1-sulfonamide]
Ki (KAT6A Full length enzyme; [2]): 2.3 nM
Ki [1, 3]: 15.4 nM

SMILES: COc1cc2c(NS(=O)(=O)c3c(OC)cc(CN4CCC[C@H](F)C4)cc3OC)noc2cc1Nc1cc(C2CC2)n[nH]1 (single isomer, unassigned) [Example 197, N-{6-[(3-cyclopropyl-1H-pyrazol-5-yl)amino]-5-methoxy-1,2-benzoxazol-3-yl}-4-[(3-fluoropiperidin-1-yl)methyl]-2,6-dimethoxybenzene-1-sulfonamide]
Ki (KAT6A Full length enzyme; [2]): 1.3 nM
Ki [1, 3]: 7.3 nM

SMILES: COc1cc2c(NS(=O)(=O)c3c(OC)cc(CN4CCC[C@@H](F)C4)cc3OC)noc2cc1Nc1cc(C2CC2)n[nH]1 (single isomer, unassigned) [Example 198, N-{6-[(3-cyclopropyl-1H-pyrazol-5-yl)amino]-5-methoxy-1,2-benzoxazol-3-yl}-4-[(3-fluoropiperidin-1-yl)methyl]-2,6-dimethoxybenzene-1-sulfonamide]
Ki (KAT6A Full length enzyme; [2]): 1.1 nM
Ki [1, 3]: 5.9 nM

SMILES: COc1cc2c(NS(=O)(=O)c3c(OC)cc(C(C)N4CCOCC4)cc3OC)noc2cc1Nc1cc(C2CC2)n[nH]1 (single isomer, unassigned) [Example 208, N-{6-[(3-cyclopropyl-1H-pyrazol-5-yl)amino]-5-methoxy-1,2-benzoxazol-3-yl}-2,6-dimethoxy-4-[1-(morpholin-4-yl)ethyl]benzene-1-sulfonamide]
Ki (KAT6A Full length enzyme; [2]): 2.4 nM
Ki [1, 3]: 7.6 nM

SMILES: COc1cc2c(NS(=O)(=O)c3c(OC)cc(C(C)N4CC(F)C4)cc3OC)noc2cc1Nc1cc(C2CC2)[nH]n1 (single isomer, unassigned) [Example 210, N-{6-[(5-cyclopropyl-1H-pyrazol-3-yl)amino]-5-methoxy-1,2-benzoxazol-3-yl}-4-[1-(3-fluoroazetidin-1-yl)ethyl]-2,6-dimethoxybenzene-1-sulfonamide]
Ki (KAT6A Full length enzyme; [2]): 1.2 nM
Ki [1, 3]: 6.6 nM

SMILES: COc1cc2c(NS(=O)(=O)c3c(OC)cc(C4CN(C)CC(F)(F)C4)cc3OC)noc2cc1Nc1cc(C2CC2)[nH]n1 (single isomer, unassigned) [Example 228, N-{6-[(5-cyclopropyl-1 H-pyrazol-3-yl)amino]-5-methoxy-1,2-benzoxazol-3-yl}-4-(5,5-difluoro-1-methylpiperidin-3-yl)-2,6-dimethoxybenzene-1-sulfonamide]
Ki (KAT6A Full length enzyme; [2]): 0.8 nM
Ki [1, 3]: 6.2 nM

SMILES: COc1cc2c(NS(=O)(=O)c3c(OC)cc(C4CN(C)CC(F)(F)C4)cc3OC)noc2cc1Nc1cc(C2CC2)[nH]n1 (single isomer, unassigned) [Example 229, N-{6-[(5-cyclopropyl-1 H-pyrazol-3-yl)amino]-5-methoxy-1,2-benzoxazol-3-yl}-4-(5,5-difluoro-1-methylpiperidin-3-yl)-2,6-dimethoxybenzene-1-sulfonamide]
Ki (KAT6A Full length enzyme; [2]): 1.7 nM
Ki [1, 3]: 6.4 nM

SMILES: CCc1cc(Nc2cc3onc(NS(=O)(=O)c4c(OC)cc(C5COCCO5)cc4OC)c3cc2OC)[nH]n1 (single isomer, unassigned) [Example 239, 4-(1,4-dioxan-2-yl)-N-{6-[(3-ethyl-1H-pyrazol-5-yl)amino]-5-methoxy-1,2-benzoxazol-3-yl}-2,6-dimethoxybenzene-1-sulfonamide]
Ki (KAT6A Full length enzyme; [2]): 2.1 nM
Ki [1, 3]: 14.1 nM

SMILES: CCc1cc(Nc2cc3onc(NS(=O)(=O)c4c(OC)cc(C5COCCO5)cc4OC)c3cc2OC)[nH]n1 (single isomer, unassigned) [Example 240, 4-(1,4-dioxan-2-yl)-N-{6-[(3-ethyl-1H-pyrazol-5-yl)amino]-5-methoxy-1,2-benzoxazol-3-yl}-2,6-dimethoxybenzene-1-sulfonamide]
Ki (KAT6A Full length enzyme; [2]): 1.2 nM
Ki [1, 3]: 7.5 nM

SMILES: COc1cc2c(NS(=O)(=O)c3c(OC)cc(-c4ccn(C)n4)cc3OC)noc2cc1Nc1cc(C2CC2C)n[nH]1 (single isomer, unassigned) [Example 241, 2,6-dimethoxy-N-(5-methoxy-6-{[3-(2-methylcyclopropyl)-1H-pyrazol-5-yl]amino}-1,2-benzoxazol-3-yl)-4-(1-methyl-1H-pyrazol-3-yl)benzene-1-sulfonamide]
Ki (KAT6A Full length enzyme; [2]): 2.6 nM
Ki [1, 3]: 75.3 nM

SMILES: COc1cc2c(NS(=O)(=O)c3c(OC)cc(N4C(=O)CCC4C)cc3OC)noc2cc1Nc1cc(C2CC2)n[nH]1 (single isomer, unassigned) [Example 244, N-{6-[(3-cyclopropyl-1 H-pyrazol-5-yl)amino]-5-methoxy-1,2-benzoxazol-3-yl}-2,6-dimethoxy-4-(2-methyl-5-oxopyrrolidin-1-yl)benzene-1-sulfonamide]
Ki (KAT6A Full length enzyme; [2]): 0.2 nM
Ki [1, 3]: 1.3 nM

SMILES: COc1cc2c(NS(=O)(=O)c3c(OC)cc(N4C(=O)CCC4C)cc3OC)noc2cc1Nc1cc(C2CC2)n[nH]1 (single isomer, unassigned) [Example 245, N-{6-[(3-cyclopropyl-1 H-pyrazol-5-yl)amino]-5-methoxy-1,2-benzoxazol-3-yl}-2,6-dimethoxy-4-(2-methyl-5-oxopyrrolidin-1-yl)benzene-1-sulfonamide]
Ki (KAT6A Full length enzyme; [2]): 0.7 nM
Ki [1, 3]: 3.6 nM

SMILES: COc1cc2c(NS(=O)(=O)c3c(OC)cc(C4CCOC4)cc3OC)noc2cc1Nc1cc(C2CC2)n[nH]1 (single isomer, unassigned) [Example 266, N-{6-[(3-cyclopropyl-1H-pyrazol-5-yl)amino]-5-methoxy-1,2-benzoxazol-3-yl}-2,6-dimethoxy-4-(oxolan-3-yl)benzene-1-sulfonamide]
Ki (KAT6A Full length enzyme; [4]): 1.6 nM
Ki [1, 5]: 13.6 nM

SMILES: COc1cc2c(NS(=O)(=O)c3c(OC)cc(C4CCOC4)cc3OC)noc2cc1Nc1cc(C2CC2)n[nH]1 (single isomer, unassigned) [Example 267, N-{6-[(3-cyclopropyl-1H-pyrazol-5-yl)amino]-5-methoxy-1,2-benzoxazol-3-yl}-2,6-dimethoxy-4-(oxolan-3-yl)benzene-1-sulfonamide]
Ki (KAT6A Full length enzyme; [4]): 1.3 nM
Ki [1, 5]: 9.3 nM

SMILES: COc1cc2c(NS(=O)(=O)c3c(OC)cc(C4CCCOC4)cc3OC)noc2cc1Nc1cc(C2CC2)n[nH]1 (single isomer, unassigned) [Example 268, N-{6-[(3-cyclopropyl-1 H-pyrazol-5-yl)amino]-5-methoxy-1,2-benzoxazol-3-yl}-2,6-dimethoxy-4-(oxan-3-yl)benzene-1-sulfonamide]
Ki (KAT6A Full length enzyme; [4]): 1.2 nM
Ki [1, 5]: 8.8 nM

SMILES: COc1cc2c(NS(=O)(=O)c3c(OC)cc(C4CCCOC4)cc3OC)noc2cc1Nc1cc(C2CC2)n[nH]1 (single isomer, unassigned) [Example 269, N-{6-[(3-cyclopropyl-1 H-pyrazol-5-yl)amino]-5-methoxy-1,2-benzoxazol-3-yl}-2,6-dimethoxy-4-(oxan-3-yl)benzene-1-sulfonamide]
Ki (KAT6A Full length enzyme; [4]): 0.8 nM
Ki [1, 5]: 6.1 nM

SMILES: COCC(OC)c1cc(OC)c(S(=O)(=O)Nc2noc3cc(Nc4cc(C5CC5)[nH]n4)c(OC)cc23)c(OC)c1 (single isomer, unassigned) [Example 274, N-{6-[(5-cyclopropyl-1 H-pyrazol-3-yl)amino]-5-methoxy-1,2-benzoxazol-3-yl}-4-(1,2-dimethoxyethyl)-2,6-dimethoxybenzene-1-sulfonamide]
Ki (KAT6A Full length enzyme; [4]): 2.8 nM
Ki [1, 5]: 6.9 nM

SMILES: COCC(OC)c1cc(OC)c(S(=O)(=O)Nc2noc3cc(Nc4cc(C5CC5)[nH]n4)c(OC)cc23)c(OC)c1 (single isomer, unassigned) [Example 275, N-{6-[(5-cyclopropyl-1H-pyrazol-3-yl)amino]-5-methoxy-1,2-benzoxazol-3-yl}-4-(1,2-dimethoxyethyl)-2,6-dimethoxybenzene-1-sulfonamide]
Ki (KAT6A Full length enzyme; [4]): 1.1 nM
Ki [1, 5]: 9.7 nM
